Source: patent US5284853A, “Angiotensin II receptor blocking 2,3,6 substituted quinazolinones” (American Cyanamid Company, priority 1993, dated 1994)
pIC50: −log10 of the molar value. “And” between values parts separate entries of the source, which are not always exact repeats. Identical values can stand only once.

Legend:
[1] = test system: Angiotensin II (AII) vasopressor response; assay: AII Challenge: antagonism of the angiotensin II vasopressor response in conscious SHR; format: in vivo, Spontaneously hypertensive rats (Male okamoto-Aoki SHR); conditions: 15 mg/kg I.V.; for Average Change / Inhibition: n = 2; for Change / Control Before AII / Response After AII: per rat
Excerpt: […] Conscious Male okamoto-Aoki SHR, 16-20 weeks old, weighing approximately 330 g are purchased from Charles River Labs (Wilmington, MA). Conscious rats are restrained in a supine position with elastic tape. The area at the base of the tail is locally anesthetized by subcutaneous infiltration with 2% procaine. […] The cannula is secured, heparinized (1,000 I.U./ml), sealed and the wound is closed. The animals are placed in plastic restraining cages in an upright position. The cannula is attached to a Statham P23Db pressure transducer, and pulsatile blood pressure is recorded to 10-15 minutes with a Gould Brush recorder. (Chan et al., (Drug Development Res., 18:75-94, 1989). […] Co., St. […] […] […] […] […] A compound is considered active if at 30 mg/kg i.v. it antagonized at least 50% of the response.

Angiotensin II Receptor = target: T1, Angiotensin II Receptor (Bos taurus, UniProt P25104); assay: Receptor binding assay: competition of [^125 I](Sar^1,Ile^8)AngII binding to beef adrenal cortex microsomal membranes; conditions: 60 min, room temperature, pH 7.4
T1 construct: The brownish tissue forming the adrenal cortex is scraped off and finely minced with scissors before homogenization; tissue local slaughter house (Maxwell-Cohen); host or cells: beef adrenal cortex, microsomal membranes (100,000×g pellet)
T1 sequence (P25104 1-359): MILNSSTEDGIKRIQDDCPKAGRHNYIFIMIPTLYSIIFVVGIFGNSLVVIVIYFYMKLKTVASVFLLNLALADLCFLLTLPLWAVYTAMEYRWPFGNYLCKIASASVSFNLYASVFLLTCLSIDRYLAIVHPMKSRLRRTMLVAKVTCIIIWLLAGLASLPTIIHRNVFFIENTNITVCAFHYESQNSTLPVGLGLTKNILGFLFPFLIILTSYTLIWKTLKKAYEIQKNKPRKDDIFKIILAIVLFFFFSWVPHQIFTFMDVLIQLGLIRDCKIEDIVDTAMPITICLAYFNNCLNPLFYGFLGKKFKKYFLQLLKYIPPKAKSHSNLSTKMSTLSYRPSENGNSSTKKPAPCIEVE
Excerpt: Beef adrenals are obtained from a local slaughter house (Maxwell-Cohen). [^125 […]. 2200 Ci/mmole, is purchased from Dupont (KEN@, Boston, Mass.). All unlabeled AngII analogs, Dimethylsulfoxide (DMSO), nucleotides, bovine serum albumin (BBA) are purchased from Sigma Chemical Co., St. Louis, MO U.S.A. Approximately sixteen (16) to twenty (20) beef adrenal glands are processed as follows: fresh adrenal glands received on crushed ice are cleaned of fatty tissues and the tough membranes encapsulating the glands are removed and discarded. The brownish tissue forming the adrenal cortex is scraped off and finely minced with scissors before homogenization care is taken to avoid contamination with medullary tissue during dissection. […] Unless otherwise indicated, all subsequent operations are done at […]. […] The homogenate is centrifuged first at low speed (3,000×g) for 10 min. […] This P2 pellet is discarded and the liquid phase is carefully decanted off in clean centrifuge tubes and recentrifuged at high speed (100,000×g) for 60 min. The translucent final pellet is harvested and combined in a small volume (20-50.0 ml) of […] Tris.HCl buffer, pH 7.2. A 100 ul aliquot is withdrawn and the protein content of the preparation is determined by the Lowry's method (Lowry, O. H., Rosebrough, N. P., Parr, A. L. and Randall, R. J., Protein measurement with Folin phenol reagent. J. Biol. Chem., […], 265-275, 1951). The pelleted membrane is reconstituted in 50.0 mM Tris.HCl buffer containing 0.1 mM of phenylmethylsulfonyl fluoride (PMSF) to give approximately a protein concentration of 2.5 mg per ml of tissue suspension. […] In competition studies, experimental compounds are diluted in dimethylsulfoxide (DMSO) and added in 20 ul to wells before the introduction of tissue membranes. This concentration of DMSO is found to have no negative effects on the binding of [^125 I] ([…] to the membranes. Assays are performed in triplicate. The wells are left undisturbed for 60 min. at room temperature. Following incubation, all wells are harvested at once with a Brandel® Harvester especially designed for a 96 well plate (Brandel® Biomedical Research & Development Labs. Inc., Gaithersburg, MD, U.S.A.). The filter discs are washed with 10×1.0 ml of cold 0.9% NaCl to remove unbound ligand. Presoaking the filter sheet in 0.1% polyethyleneimine in normal saline (PEI/Saline) greatly reduces the radioactivity retained by the filter blanks. This method is routinely used. The filters are removed from the filter grid and counted in a Parkard® Cobra Gamma Counter for 1 min. (Packard Instrument Co., Downers Grove, Ill, U.S.A.). The binding data are analyzed by the non-linear interactive "LUNDON-11" program (LUNDON SOFTWARE Inc., Cleveland, OH U.S.A.).

[2] = AII 0.05 mcg/kg IV, 30 min post dose
[3] = AII 0.05 mcg/kg IV, 60 min post dose
[4] = AII 0.05 mcg/kg IV, 90 min post dose
[5] = AII 0.05 mcg/kg IV, 120 min post dose
[6] = AII 0.05 mcg/kg IV, 180 min post dose
[7] = AII 0.1 mcg/kg IV, 30 min post dose
[8] = AII 0.1 mcg/kg IV, 60 min post dose
[9] = AII 0.1 mcg/kg IV, 90 min post dose
[10] = AII 0.1 mcg/kg IV, 120 min post dose
[11] = AII 0.1 mcg/kg IV, 180 min post dose

CCCCc1nc2ccc(C3CC(C(=O)O)=NO3)cc2c(=O)n1Cc1ccc(-c2ccccc2-c2nnn[nH]2)cc1 (stereo not shown) [Example 28, 5-[2-butyl-3,4-dihydro-4-oxo-3-[[2'-(lH-tetrazol-5-yl)[1,1'-biphenyl]-4-yl]-methyl]-6-quinazolinyl]-4,5-dihydro-3-isoxazolecarboxylic acid]
Average Change [1, 2]: 10 mmhg | Inhibition [1, 2]: 75% | Change [1, 2]: 10 mmhg | Control Before AII [1, 2]: 185 mmhg and 167 mmhg | Response After AII [1, 2]: 195 mmhg and 177 mmhg | Average Change [1, 3]: 2.5 mmhg | Inhibition [1, 3]: 94% | Change [1, 3]: 5 mmhg and 0 mmhg | Control Before AII [1, 3]: 170 mmhg and 165 mmhg | Response After AII [1, 3]: 175 mmhg and 165 mmhg | Average Change [1, 4]: 10 mmhg | Inhibition [1, 4]: 75% | Change [1, 4]: 10 mmhg | Control Before AII [1, 4]: 185 mmhg | Response After AII [1, 4]: 195 mmhg | Average Change [1, 5]: 16 mmhg | Inhibition [1, 5]: 60% | Change [1, 5]: 22 mmhg and 10 mmhg | Control Before AII [1, 5]: 163 mmhg and 165 mmhg | Response After AII [1, 5]: 185 mmhg and 175 mmhg | Average Change [1, 6]: 15.5 mmhg | Inhibition [1, 6]: 61% | Change [1, 6]: 16 mmhg and 15 mmhg | Control Before AII [1, 6]: 170 mmhg | Response After AII [1, 6]: 186 mmhg and 185 mmhg | Average Change [1, 7]: 4.5 mmhg | Inhibition [1, 7]: 91% | Change [1, 7]: 9 mmhg and 0 mmhg | Control Before AII [1, 7]: 190 mmhg and 165 mmhg | Response After AII [1, 7]: 199 mmhg and 165 mmhg | Average Change [1, 8]: 14 mmhg | Inhibition [1, 8]: 73% | Change [1, 8]: 15 mmhg and 13 mmhg | Control Before AII [1, 8]: 175 mmhg and 157 mmhg | Response After AII [1, 8]: 190 mmhg and 170 mmhg | Average Change [1, 9]: 10 mmhg | Inhibition [1, 9]: 81% | Change [1, 9]: 10 mmhg | Control Before AII [1, 9]: 185 mmhg and 175 mmhg | Response After AII [1, 9]: 195 mmhg and 185 mmhg | Average Change [1, 10]: 20 mmhg | Inhibition [1, 10]: 62% | Change [1, 10]: 20 mmhg | Control Before AII [1, 10]: 180 mmhg and 165 mmhg | Response After AII [1, 10]: 200 mmhg and 185 mmhg | Average Change [1, 11]: 24.5 mmhg | Inhibition [1, 11]: 53% | Change [1, 11]: 24 mmhg and 25 mmhg | Control Before AII [1, 11]: 175 mmhg and 160 mmhg | Response After AII [1, 11]: 199 mmhg and 185 mmhg | pIC50 (Angiotensin II Receptor): 6.22

CCCCc1nc2ccc(C3CC(c4ccc(C)cc4)=NO3)cc2c(=O)n1Cc1ccc(-c2ccccc2-c2nnn[nH]2)cc1 (stereo not shown) [Example 23, 2-Butyl-6-[4,5-dihydro-3-(4-methylphenyl)-5-isoxazolyl]-3-[[2'-(lH-tetrazol-5-yl)[1,1'-biphenyl]-4-yl]methyl]-4(3H)-quinazolinone]
pIC50 (Angiotensin II Receptor): 7.15
